Results taken from patent US20110269783A1, “NOVEL 2,3-DIAMINO-QUINAZOLINONE DERIVATIVES AND THEIR MEDICAL USE” (NEUROSEARCH A/S, priority 2008, published 2011).

Biological target: T1, human Kv7.2+3 (Homo sapiens, UniProt O43525+O43526)
T1 construct: expressed in transfected cells; host or cells: HEK293
Assay: FLIPR-based thallium influx characterization of Kv7.2+3 modulators
Format: cell-based
Conditions: for EC50: HEK293 cells over-expressing human Kv7.2+3, Tl+ influx, BTC-AM, FLIPR, 50% of channel activity compared to retigabine control responses; for Emax: maximal response relative to the reference (retigabine) response, HEK293 human Kv7.2+3, Tl+ influx FLIPR, read-out: Efficacy
Method: This experiment determines the ability of a test compound to modulate the activity of Kv7.2+3 channels heterologously expressed in human HEK293 cells. The ability is determined relative to retigabine. The activity is determined using a standard thallium (I) sensitive assay, e.g. using a fluorometric method in a Fluorescent Image Plate Reader (FLIPR) as described below in more detail.
Full concentration/response curves are generated and EC50 values are calculated based on max values. EC50 values (Effective Concentration) represent the concentration of the test substance, at which 50% of the channel activity is obtained when compared to retigabine control responses. Maximal response determined relative to the reference (retigabine) response is calculated.
Human HEK293 cells over-expressing human Kv7.2+3 are grown in culture medium (DMEM supplemented with 10% foetal bovine serum), in polystyrene culture flasks ([…]) in a humidified atmosphere of 5% CO2 in air, at 37° C. Cell confluence should be 80-90% on day of plating. Cells are rinsed with 4 ml of PBS (phosphate buffered saline) and incubated 2 min with 1 ml of Trypsin-EDTA. After addition of 25 ml of culture medium cells are re-suspended by trituration with a 25 ml pipette.
The cells are seeded at a density of ˜3×10^6 cells/ml (25 μl/well) in black-walled, clear bottom, 384-well plates pre-treated with 0.01 g/l poly-D-lysin (20 μl/well for ≧30 min). Plated cells were allowed to proliferate for 24 h before loading with dye.
BTC-AM ([…], Invitrogen) is added 25.5 μl DMSO. The BTC-AM stock solution (2 mM) is diluted to a final concentration of 2 μM in Cl^− free assay buffer (in mM: 140 Natgluconate, 2.5 K^+-gluconate, 6 Ca2^+-gluconate, 1 Mg^2+ gluconate, 5 glucose, 10 HEPES, pH 7.3) containing 2 μM ouabain, 2 mM amaranth and 1 mM tartrazine.
The culture medium is aspirated from the wells, the cells are washed thrice in Cl^− free assay buffer, and 25 μl of the BTC-AM loading solution is added to each well. The cells are incubated at 37° C. for 60 min.
After the loading period, the Tl^+-sensitive BTC fluorescence signal is measured over time using a FLIPR.
• Temperature: Room temp. • First addition: 12 μl test or control compound after 15 sec at a rate of 30 μl/sec and starting height of 20 μl • Second addition: 12 μl stimulus buffer (Cl^− free assay buffer supplemented with 1 mM Tl2SO4, 5 mM K2SO4 as well as the quenchers amaranth (2 mM) and tartrazine (1 mM)) is added after an additional 3 minutes at a rate of 30 μl/sec and starting height of 30 μl • Reading intervals: First sequence—3 sec×5, 2 sec×24 and 5 sec×25 • Second sequence—1 sec×5, 2 sec×24 and 5 sec×36
Addition plates (compound plate and stimulus plate) are placed in positions 2 and 3, respectively. Cell plates are placed in position 1 and run using the “KCNQ (two additions)” program. FLIPR will then take the appropriate measurements in accordance with the interval settings above. Fluorescence obtained after stimulation is corrected for the mean basal fluorescence (in Cl^− free assay buffer).
Full concentration/response curves are generated and EC50 values (“Effective Concentration”; the concentration at which 50% of the channel activity is obtained when compared to retigabine control responses) are calculated based on peak values. Maximal response determined relative to the reference (retigabine) response is calculated.

EC50 | Emax | SMILES
1400 nM | 118% | CN(C)c1nc2cc(F)ccc2c(=O)n1NC(=O)[C@@H]1C[C@@H]1c1ccc(Cl)cc1 (relative stereo) [Compound 2.1, cis-2-(4-Chloro-phenyl)-cyclopropanecarboxylic acid (2-dimethylamino-7-fluoro-4-oxo-4H-quinazolin-3-yl)-amide]
450 nM | 116% | CC(C)N(C)c1nc2cc(F)cc(F)c2c(=O)n1NC(=O)[C@@H]1C[C@@H]1c1ccc(Cl)cc1 (relative stereo) [Compound 2.2, cis-2-(4-Chloro-phenyl)-cyclopropanecarboxylic acid [5,7-difluoro-2-(isopropyl-methyl-amino)-4-oxo-4H-quinazolin-3-yl]-amide]
830 nM | 109% | O=C(Nn1c(N2CCCC2)nc2cc(F)cc(F)c2c1=O)[C@@H]1C[C@@H]1c1ccc(Cl)cc1 (relative stereo) [Compound 2.3, cis-2-(4-Chloro-phenyl)-cyclopropanecarboxylic acid (5,7-difluoro-4-oxo-2-pyrro-lidin-1-yl-4H-quinazolin-3-yl)-amide]
940 nM | 114% | CCN(C)c1nc2cc(F)ccc2c(=O)n1NC(=O)[C@@H]1C[C@@H]1c1ccc(Cl)cc1 (relative stereo) [Compound 2.4, cis-2-(4-Chloro-phenyl)-cyclopropanecarboxylic acid [2-(ethyl-methyl-amino)-7-fluoro-4-oxo-4H-quinazolin-3-yl]-amide]
930 nM | 114% | CC(C)N(C)c1nc2cc(F)ccc2c(=O)n1NC(=O)[C@@H]1C[C@@H]1c1ccc(Cl)cc1 (relative stereo) [Compound 2.5, cis-2-(4-Chloro-phenyl)-cyclopropanecarboxylic acid [7-fluoro-2-(isopropyl-methyl-amino)-4-oxo-4H-quinazolin-3-yl]-amide]
500 nM | 110% | CCN(C)c1nc2cc(F)cc(F)c2c(=O)n1NC(=O)[C@@H]1C[C@@H]1c1ccc(Cl)cc1 (relative stereo) [Compound 2.6, cis-2-(4-Chloro-phenyl)-cyclopropanecarboxylic acid [2-(ethyl-methyl-amino)-5,7-difluoro-4-oxo-4H-quina-zolin-3-yl]-amide]
270 nM | 101% | O=C(Nn1c(N2CCCC2)nc2c(F)cccc2c1=O)[C@@H]1C[C@@H]1c1ccc(Cl)cc1 (relative stereo) [Compound 2.7, cis-2-(4-Chloro-phenyl)-cyclopropanecarboxylic acid (8-fluoro-4-oxo-2-pyrrolidin-1-yl-4H-quinazolin-3-yl)-amide]

Continued, molecule first:

SMILES | EC50 | Emax
O=C(CCc1cccc(F)c1)Nn1c(N2CCCC2)nc2cc(F)ccc2c1=O [Compound 1.1, N-(7-Fluoro-4-oxo-2-pyrrolidin-1-yl-4H-quinazolin-3-yl)-3-(3-fluoro-phenvl)-propion-amide] | 260 nM | 154%
COCCN(C)c1nc2ccccc2c(=O)n1NC(=O)CCc1cccc(F)c1 [Compound 1.2, 3-(3-Fluoro-phenyl)-N-{2-[(2-methoxy-ethyl)-methyl-amino]-4-oxo-4H-quinazolin-3-yl}-propionamide] | 9500 nM | 130%
CN(Cc1ccccc1)c1nc2ccccc2c(=O)n1NC(=O)CCc1cccc(F)c1 [Compound 1.3, N-[2-(Benzyl-methyl-amino)-4-oxo-4H-quinazolin-3-yl]-3-(3-fluoro-phenyl)-propion-amide] | 1600 nM | 118%
CN(Cc1ccccc1)c1nc2ccccc2c(=O)n1NC(=O)CCc1cc(F)cc(F)c1 [Compound 1.4, N-[2-(Benzyl-methyl-amino)-4-oxo-4H-quinazolin-3-yl]-3-(3,5-difluoro-phenyl)-propionamide] | 3900 nM | 40%
O=C(CCc1cccc(F)c1)Nn1c(N2CCCC2)nc2ccccc2c1=O [Compound 1.5, 3-(3-Fluoro-phenyl)-N-(4-oxo-2-pyrrolidin-1-yl-4H-quinazolin-3-yl)-propion-amide] | 410 nM | 148%
O=C(CCc1ccccc1)Nn1c(N2CCCC2)nc2ccccc2c1=O [Compound 1.6, N-(4-Oxo-2-pyrrolidin-1-yl-4H-quinazolin-3-yl)-3-phenyl-propionamide] | 660 nM | 96%
CN(C)c1nc2cc(F)ccc2c(=O)n1NC(=O)CCc1cccc(F)c1 [Compound 1.7, N-(2-Dimethylamino-7-fluoro-4-oxo-4H-quinazolin-3-yl)-3-(3-fluoro-phenyl)-propionamide] | 2500 nM | 112%
O=C(CSc1ccccc1)Nn1c(N2CCCC2)nc2ccccc2c1=O [Compound 1.8, N-(4-Oxo-2-pyrrolidin-1-yl-4H-quinazolin-3-yl)-2-phenylsulfanyl-acetamide] | 3300 nM | 103%
O=C(COc1ccccc1)Nn1c(N2CCCC2)nc2ccccc2c1=O [Compound 1.9, N-(4-Oxo-2-pyrrolidin-1-yl-4H-quinazolin-3-yl)-2-phenoxy-acetamide] | 12000 nM | 75%
O=C(CCc1cccc(F)c1)Nn1c(N2CCCC2)nc2cccc(F)c2c1=O [Compound 1.10, N-(5-Fluoro-4-oxo-2-pyrro-lidin-1-yl-4H-quinazolin-3-yl)-3-(3-fluoro-phenyl)-propionamide] | 340 nM | 100%
O=C(CSc1ccc(F)cc1)Nn1c(N2CCCC2)nc2ccccc2c1=O [Compound 1.11, 2-(4-Fluoro-phenylsulfanyl)-N-(4-oxo-2-pyrrolidin-1-yl-4H-quinazolin-3-yl)-acetamide] | 2200 nM | 106%
O=C(CCc1cccc(F)c1)Nn1c(N2CCCC2)nc2cc(F)cc(F)c2c1=O [Compound 1.12, N-(5,7-Difluoro-4-oxo-2-pyrrolidin-1-yl-4H-quina-zolin-3-yl)-3-(3-fluoro-phenyl)-propionamide] | 32 nM | 122%
CC(C)(C)c1ccc(SCC(=O)Nn2c(N3CCCC3)nc3ccccc3c2=O)cc1 [Compound 1.13, 2-(4-tert-Butyl-phenyl-sulfanyl)-N-(4-oxo-2-pyrro-lidin-1-yl-4H-quinazolin-3-yl)-acetamide] | 2100 nM | 41%
CC(C)N(C)c1nc2cc(F)cc(F)c2c(=O)n1NC(=O)CCc1cccc(F)c1 [Compound 1.14, N-[5,7-Difluoro-2-(isopropyl-methyl-amino)-4-oxo-4H-quinazolin-3-yl]-3-(3-fluoro-phenyl)-propionamide] | 450 nM | 109%
O=C(CCc1cc(F)cc(F)c1)Nn1c(N2CCCC2)nc2cc(F)cc(F)c2c1=O [Compound 1.15, N-(5,7-Difluoro-4-oxo-2-pyrrolidin-1-yl-4H-quina-zolin-3-yl)-3-(3,5-difluoro-phenyl)-propionamide] | 18 nM | 112%
C[C@@H](CC(=O)Nn1c(N2CCCC2)nc2cc(F)cc(F)c2c1=O)c1ccccc1 [Compound 1.16, (S)-N-(5,7-Difluoro-4-oxo-2-pyrrolidin-1-yl-4H-quina-zolin-3-yl)-3-phenyl-butyr-amide] | 2.8 nM | 68%
CC(CC(=O)Nn1c(N2CCCC2)nc2ccccc2c1=O)c1ccc(Cl)cc1 (centres unmarked) [Compound 1.17, 3-(4-Chloro-phenyl)-N-(4-oxo-2-pyrrolidin-1-yl-4H-quinazolin-3-yl)-butyramide] | 100 nM | 85%
CC(CC(=O)Nn1c(N2CCCC2)nc2ccccc2c1=O)c1cccc(F)c1 (centres unmarked) [Compound 1.18, 3-(3-Fluoro-phenyl)-N-(4-oxo-2-pyrrolidin-1-yl-4H-quinazolin-3-yl)-butyramide] | 15 nM | 98%
